Common to all, as to assay type: cell-based
Assay [1] addresses T1, human TLR8 (Homo sapiens, UniProt Q9NR97).
T1 construct: host or cells: HEK-Blue cells
T1 sequence (Q9NR97 27-1041): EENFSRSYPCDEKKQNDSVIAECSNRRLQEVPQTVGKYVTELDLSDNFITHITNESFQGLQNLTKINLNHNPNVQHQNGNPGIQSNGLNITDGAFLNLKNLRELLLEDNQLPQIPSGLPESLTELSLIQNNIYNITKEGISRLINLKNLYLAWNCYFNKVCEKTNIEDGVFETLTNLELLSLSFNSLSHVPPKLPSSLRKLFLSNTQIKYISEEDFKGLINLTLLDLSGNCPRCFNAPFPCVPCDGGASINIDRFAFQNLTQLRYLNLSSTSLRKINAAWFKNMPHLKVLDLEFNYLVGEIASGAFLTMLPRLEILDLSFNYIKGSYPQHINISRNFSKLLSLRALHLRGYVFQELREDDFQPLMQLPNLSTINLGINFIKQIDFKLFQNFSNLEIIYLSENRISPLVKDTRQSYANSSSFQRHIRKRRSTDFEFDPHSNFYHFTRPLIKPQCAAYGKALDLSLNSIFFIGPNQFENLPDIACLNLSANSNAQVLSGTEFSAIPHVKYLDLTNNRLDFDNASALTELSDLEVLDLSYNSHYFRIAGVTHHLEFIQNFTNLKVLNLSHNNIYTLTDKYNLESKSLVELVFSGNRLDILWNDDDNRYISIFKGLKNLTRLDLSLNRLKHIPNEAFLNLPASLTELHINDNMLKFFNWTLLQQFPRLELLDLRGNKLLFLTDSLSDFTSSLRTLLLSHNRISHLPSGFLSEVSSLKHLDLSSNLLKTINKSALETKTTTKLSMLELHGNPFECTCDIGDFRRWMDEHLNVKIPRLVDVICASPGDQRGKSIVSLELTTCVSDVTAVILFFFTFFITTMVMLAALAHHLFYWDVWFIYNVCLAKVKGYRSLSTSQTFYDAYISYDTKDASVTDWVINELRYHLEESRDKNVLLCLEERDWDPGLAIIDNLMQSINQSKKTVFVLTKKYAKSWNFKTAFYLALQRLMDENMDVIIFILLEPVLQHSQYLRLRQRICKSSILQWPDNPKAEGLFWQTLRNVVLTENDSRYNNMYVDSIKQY
Briefly: TLR8 inhibition reporter assay (HEK-Blue cells, SEAP reporter, R848 stimulation). The conditions noted are these: HEK-Blue cells overexpressing human TLR8, SEAP reporter, R848 15.9 μM; read-out: TLR8 IC50. Summed up:
(§1)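 Compound treatment: 30 min, RT, 0.05 nM–50 μM final. Agonist: TLR7 gardiquimod 7.5 μM; TLR8 R848 15.9 μM; TLR9 ODN2006 5 nM. Incubation 22 h, 37 °C, 5% CO2. Readout SEAP, HEK-Blue Detection.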
For orientation: A reporter such as luciferase makes a cellular process visible.

Assay [2] concerns the target T2, human TLR7 (Homo sapiens, UniProt Q9NYK1).
T2 construct: host or cells: HEK-Blue cells
T2 sequence (Q9NYK1 27-1049): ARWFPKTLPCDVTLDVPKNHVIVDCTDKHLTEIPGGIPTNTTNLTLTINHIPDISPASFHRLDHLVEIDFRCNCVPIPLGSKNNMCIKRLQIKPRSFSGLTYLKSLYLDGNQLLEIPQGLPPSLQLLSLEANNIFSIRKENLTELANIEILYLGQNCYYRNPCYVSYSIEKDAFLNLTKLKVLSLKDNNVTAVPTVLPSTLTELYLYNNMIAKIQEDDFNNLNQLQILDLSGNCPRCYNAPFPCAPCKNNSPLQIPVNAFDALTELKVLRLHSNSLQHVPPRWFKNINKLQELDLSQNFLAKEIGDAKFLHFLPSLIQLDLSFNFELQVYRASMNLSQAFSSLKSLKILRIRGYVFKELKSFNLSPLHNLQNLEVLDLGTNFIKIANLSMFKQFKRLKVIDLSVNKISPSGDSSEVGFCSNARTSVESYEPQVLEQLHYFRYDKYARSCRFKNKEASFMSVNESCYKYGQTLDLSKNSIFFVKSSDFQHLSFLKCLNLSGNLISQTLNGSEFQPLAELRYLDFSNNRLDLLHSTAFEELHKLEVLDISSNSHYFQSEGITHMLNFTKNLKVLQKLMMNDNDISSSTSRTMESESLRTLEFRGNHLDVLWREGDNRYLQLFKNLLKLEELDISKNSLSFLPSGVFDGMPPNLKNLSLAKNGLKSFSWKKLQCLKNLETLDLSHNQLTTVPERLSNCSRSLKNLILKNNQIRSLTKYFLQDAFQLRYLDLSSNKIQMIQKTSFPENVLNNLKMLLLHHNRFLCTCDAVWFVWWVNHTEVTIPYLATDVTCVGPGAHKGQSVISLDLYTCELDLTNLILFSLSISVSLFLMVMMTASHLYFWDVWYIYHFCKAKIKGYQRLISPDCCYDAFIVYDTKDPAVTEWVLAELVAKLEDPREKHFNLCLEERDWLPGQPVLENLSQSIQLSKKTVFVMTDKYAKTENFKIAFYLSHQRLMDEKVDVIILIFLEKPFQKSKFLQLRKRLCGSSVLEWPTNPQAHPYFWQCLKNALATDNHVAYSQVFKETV
Briefly: TLR7 inhibition reporter assay (HEK-Blue cells, SEAP reporter, gardiquimod stimulation). The note with it: HEK-Blue cells overexpressing human TLR7, SEAP reporter, gardiquimod 7.5 μM; read-out: TLR7 IC50. Summed up: as §1

The target of assay [3] is T3, human TLR9 (Homo sapiens, UniProt Q9NR96).
T3 construct: host or cells: HEK-Blue cells
T3 sequence (Q9NR96 26-1032): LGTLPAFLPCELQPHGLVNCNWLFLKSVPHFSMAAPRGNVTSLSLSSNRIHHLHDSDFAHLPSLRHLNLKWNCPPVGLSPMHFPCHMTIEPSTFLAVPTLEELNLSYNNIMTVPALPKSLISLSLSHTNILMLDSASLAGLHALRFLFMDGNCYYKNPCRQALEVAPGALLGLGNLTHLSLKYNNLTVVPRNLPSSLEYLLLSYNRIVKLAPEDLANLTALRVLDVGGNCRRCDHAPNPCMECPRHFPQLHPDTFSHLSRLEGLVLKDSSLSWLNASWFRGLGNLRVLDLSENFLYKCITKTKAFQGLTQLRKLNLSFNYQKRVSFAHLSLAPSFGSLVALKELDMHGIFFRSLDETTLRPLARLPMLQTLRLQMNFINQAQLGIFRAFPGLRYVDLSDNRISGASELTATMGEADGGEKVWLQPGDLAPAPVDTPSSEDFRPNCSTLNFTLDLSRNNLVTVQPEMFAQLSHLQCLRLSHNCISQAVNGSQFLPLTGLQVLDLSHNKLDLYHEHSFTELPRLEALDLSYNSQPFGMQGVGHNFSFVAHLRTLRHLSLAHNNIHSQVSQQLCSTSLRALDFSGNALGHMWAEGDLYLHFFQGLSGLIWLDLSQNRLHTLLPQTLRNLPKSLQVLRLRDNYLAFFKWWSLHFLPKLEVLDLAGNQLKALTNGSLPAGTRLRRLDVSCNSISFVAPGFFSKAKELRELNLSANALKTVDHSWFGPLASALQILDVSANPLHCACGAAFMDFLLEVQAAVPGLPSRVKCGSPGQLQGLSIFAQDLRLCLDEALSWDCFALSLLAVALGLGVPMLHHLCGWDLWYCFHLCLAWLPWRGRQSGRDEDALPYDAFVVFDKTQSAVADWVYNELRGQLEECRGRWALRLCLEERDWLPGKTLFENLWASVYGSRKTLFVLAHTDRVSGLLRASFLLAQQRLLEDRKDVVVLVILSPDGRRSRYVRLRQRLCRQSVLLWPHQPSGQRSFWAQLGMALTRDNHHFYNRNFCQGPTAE
Briefly: TLR9 inhibition reporter assay (HEK-Blue cells, SEAP reporter, ODN2006 stimulation). The note with it: HEK-Blue cells overexpressing human TLR9, SEAP reporter, ODN2006 5 nM. In short, it runs like this:
as §1

Bounds are passed on as bounds.

The source of these data is patent US20230139171A1 (SITA Information Networking Computing UK Limited, priority 2019, published 2023).

A word on the IC50: it is the concentration at which inhibition is half-maximal. For `Cc1c(-c2[nH]c3sc(C4CCC(N5CC(F)(F)C5)CC4)nc3c2C(C)C)cn2ncnc2c1C` (single isomer, unassigned) [Example 218, 2-(4-(3,3-difluoroazetidin-1-yl)cyclohexyl)-5-(7,8-dimethyl-[1,2,4]triazolo[1,5-a]pyridin-6-yl)-6-isopropyl-4H-pyrrolo[3,2-d]thiazole], the half-maximal inhibitory concentration (IC50) was determined as 0.0186 µM in assay [1], 0.00144 µM in assay [2] and 35.9 µM in assay [3].
In the same order, the values of `Cc1c(-c2[nH]c3sc(C4CCC(N5CC(F)(F)C5)CC4)nc3c2C(C)C)cn2ncnc2c1C` (single isomer, unassigned) [Example 219, 2-(4-(3,3-difluoroazetidin-1-yl)cyclohexyl)-5-(7,8-dimethyl-[1,2,4]triazolo[1,5-a]pyridin-6-yl)-6-isopropyl-4H-pyrrolo[3,2-d]thiazole] are 0.713 µM, 0.637 µM and 46.2 µM.
On the same counts, the results for `Cc1c(-c2[nH]c3sc(C4CCC(N5CCNC(=O)C5)CC4)nc3c2C(C)C)cn2ncnc2c1C` (single isomer, unassigned) [Example 220, 4-(4-(5-(7,8-dimethyl-[1,2,4]triazolo[1,5-a]pyridin-6-yl)-6-isopropyl-4H-pyrrolo[3,2-d]thiazol-2-yl)cyclohexyl) piperazin-2-one] are 0.00438 µM, 0.0014 µM and greater than 50 µM.
Turning to `Cc1c(-c2[nH]c3sc(C4CCC(N5CCNC(=O)C5)CC4)nc3c2C(C)C)cn2ncnc2c1C` (single isomer, unassigned) [Example 221, 4-(4-(5-(7,8-dimethyl-[1,2,4]triazolo[1,5-a]pyridin-6-yl)-6-isopropyl-4H-pyrrolo[3,2-d]thiazol-2-yl)cyclohexyl) piperazin-2-one], the figures for the concentration for half-maximal inhibition (IC50) in assay [1], in assay [2] and in assay [3] were 0.0333 µM, 0.00308 µM and greater than 50 µM, respectively.
On the same counts, the results for `Cc1c(-c2[nH]c3sc(C4CCC(N(C)C(C)C)CC4)nc3c2C(C)C)cn2ncnc2c1C` (single isomer, unassigned) [Example 222, 4-(5-(7,8-dimethyl-[1,2,4]triazolo[1,5-a]pyridin-6-yl)-6-isopropyl-4H-pyrrolo[3,2-d]thiazol-2-yl)-N-isopropyl-N-methylcyclohexan-1-amine] are 0.00194 µM, 0.00075 µM and 30.4 µM.
In the same order, the values of `Cc1c(-c2[nH]c3sc(C4CCC(N(C)C(C)C)CC4)nc3c2C(C)C)cn2ncnc2c1C` (single isomer, unassigned) [Example 223, 4-(5-(7,8-dimethyl-[1,2,4]triazolo[1,5-a]pyridin-6-yl)-6-isopropyl-4H-pyrrolo[3,2-d]thiazol-2-yl)-N-isopropyl-N-methylcyclohexan-1-amine] are 0.0103 µM, 0.00865 µM and 14.3 µM.
On the same counts, the results for `Cc1c(-c2[nH]c3sc(C4CCC(N5CC(O)C5)CC4)nc3c2C(C)C)cn2ncnc2c1C` (single isomer, unassigned) [Example 224, 1-(4-(5-(7,8-dimethyl-[1,2,4]triazolo[1,5-a]pyridin-6-yl)-6-isopropyl-4H-pyrrolo[3,2-d]thiazol-2-yl)cyclohexyl)azetidin-3-ol] are 0.00063 µM, 0.00056 µM and 9.03 µM.
As for `Cc1c(-c2[nH]c3sc(C4CCC(N5CC(O)C5)CC4)nc3c2C(C)C)cn2ncnc2c1C` (single isomer, unassigned) [Example 225, 1-(4-(5-(7,8-dimethyl-[1,2,4]triazolo[1,5-a]pyridin-6-yl)-6-isopropyl-4H-pyrrolo[3,2-d]thiazol-2-yl)cyclohexyl)azetidin-3-ol], the values for the IC50 in assay [1], in assay [2] and in assay [3] were 0.00394 µM, 0.00256 µM and 5.49 µM, respectively.
On the same counts, the results for `Cc1c(-c2[nH]c3sc(C4CCC(N5CC(F)C5)CC4)nc3c2C(C)C)cn2ncnc2c1C` (single isomer, unassigned) [Example 226, 5-(7,8-dimethyl-[1,2,4]triazolo[1,5-a]pyridin-6-yl)-2-(4-(3-fluoroazetidin-1-yl)cyclohexyl)-6-isopropyl-4H-pyrrolo[3,2-d]thiazole] are 0.00041 µM, 0.00035 µM and 6.78 µM.
In the same order, the values of `Cc1c(-c2[nH]c3sc(C4CCC(N5CC(F)C5)CC4)nc3c2C(C)C)cn2ncnc2c1C` (single isomer, unassigned) [Example 227, 5-(7,8-dimethyl-[1,2,4]triazolo[1,5-a]pyridin-6-yl)-2-(4-(3-fluoroazetidin-1-yl)cyclohexyl)-6-isopropyl-4H-pyrrolo[3,2-d]thiazole] are 0.0114 µM, 0.00443 µM and 18.2 µM.
